# According to US4560509A, “Antibiotic A39079 factor S-1” (Eli Lilly and Company, priority 1983, dated 1985):
# Columns and labels:
# [1] = tested on: Acinetobacter calcoaceticus AC12; experiment: standard agar-dilution MIC assay; format: cell-based
# Excerpt: (§1) Table V summarizes the minimal inhibitory concentrations (MIC) at which factor S-1 inhibits certain organisms as determined by standard agar-dilution assays. In Table V, the activity of factor S-1 is compared with that of rifampin.
# [2] = tested on: Enterobacter aerogenes C32; experiment: standard agar-dilution MIC assay; format: cell-based; conditions: Klebsiella aerogenes; agar dilution; Enterobacter aerogenes C32; read-out: MIC
# Excerpt: as §1
# [3] = tested on: Enterobacter aerogenes EB17; experiment: standard agar-dilution MIC assay; format: cell-based; conditions: Klebsiella aerogenes; agar dilution; Enterobacter aerogenes EB17; read-out: MIC
# Excerpt: as §1
# Escherichia coli EC14 = experiment: standard agar-dilution MIC assay; format: cell-based
# Excerpt: as §1
# Escherichia coli N10 = experiment: standard agar-dilution MIC assay; format: cell-based
# Excerpt: as §1
# [4] = tested on: Klebsiella pneumoniae X26; experiment: standard agar-dilution MIC assay; format: cell-based; conditions: agar dilution; Klebsiella pneumoniae X26; read-out: MIC
# Excerpt: as §1
# Proteus inconstans PR33 = experiment: standard agar-dilution MIC assay; format: cell-based; conditions: Providencia alcalifaciens; agar dilution; Proteus inconstans PR33; read-out: MIC
# Excerpt: as §1
# Proteus rettgeri C24 = experiment: standard agar-dilution MIC assay; format: cell-based; conditions: Providencia rettgeri; agar dilution; Proteus rettgeri C24; read-out: MIC
# Excerpt: as §1
# [5] = tested on: Pseudomonas aeruginosa Ps72; experiment: standard agar-dilution MIC assay; format: cell-based
# Excerpt: as §1
# Serratia marcescens X99 = experiment: standard agar-dilution MIC assay; format: cell-based; conditions: agar dilution; Serratia marcescens X99; read-out: MIC
# Excerpt: as §1
# Shigella sonnei N9 = experiment: standard agar-dilution MIC assay; format: cell-based
# Excerpt: as §1
# [6] = tested on: Staphylococcus aureus V41; experiment: standard agar-dilution MIC assay; format: cell-based; conditions: agar dilution; Staphylococcus aureus V41; read-out: MIC
# Excerpt: as §1
# [7] = tested on: Staphylococcus aureus X400; experiment: standard agar-dilution MIC assay; format: cell-based; conditions: agar dilution; Staphylococcus aureus X400; read-out: MIC
# Excerpt: as §1
# pathogenic bacteria = experiment: growth inhibition of pathogenic bacteria (general statement); format: cell-based
# Excerpt: as §1
# rumen flora = experiment: ruminant feed-utilization activity (VFA and methane production in treated vs control flasks); format: cell-based
# Excerpt: Animals having a developed rumen function utilize feed by first degrading the carbohydrate (the main nutritive portion) to pyruvate. The pyruvate is further metabolized to volatile fatty acid (VFA) derivatives, which include acetate, propionate and butyrate. It is known that the efficiency of carbohydrate utilization in ruminants is increased by treatments which stimulate the animals' rumen flora to produce propionate compounds rather than acetate or butyrate compounds. Feed-utilization efficiency can also be improved by inhibiting methane production. When methane gas is produced in the rumen, it is generally lost through eructation. This energy loss can be minimized by inhibiting methane formation.
# [8] = tested on: bacteria normally present in the monogastric digestive system; experiment: glucose sparing / feed-utilization efficiency in monogastric animals; conditions: statement in words
# Excerpt: Yet another important property of factor S-1 is its ability to improve feed-utilization efficiency in monogastric animals. Commercially important monograstric animals include chickens and pigs. In addition, young ruminants, especially those still unweaned, function as monogastric animals. In the monogastric animal, bacteria and the host compete for nutrients in the digestive process. Agents which cause the bacteria to use less efficient substrates, leaving more efficient substrates such as glucose for the host animal, increase the feed-utilization efficiency of the host animal.
# titration = format: physicochemical; conditions: 66% aqueous dimethylformamide
# solubility = format: physicochemical
# [9] = stability in aqueous methanol solutions; format: physicochemical
# Method: (7) Stability: Stability studies on factor S-1 in aqueous methanol solutions were run at pH levels of 2,5,7 and 9 and at temperatures of 4° C., 25° C., and 37° C.
# Micrococcus luteus = experiment: antibiotic activity of column fractions; format: cell-based
# Method: Whole broth (100 L), prepared in a manner similar to that of Example 1, Section B, was filtered using a filter aid (Hyflo Supercel, Johns-ManvilleCorp.). The filtered broth (86 L) is adjusted to pH 2 with 5N hydrochloric acid and then is extracted twice with ethyl acetate (1/2 volumes). The ethyl acetate extracts are concentrated under vacuum to give an oily residue (49 g). This residue is dissolved in methanol and placed on a 10-L Diaion HP-20 column (Mitsubishi Industries). The column is washed with water (500 ml) and eluted with acetonitrile:water (30 L of 3:7 and 50 L of 3:2) and acetonitrile (20 L). Elution is carried out at a rate of 100 ml/min., collecting 4-liter fractions. Fractions are tested for antibiotic activity against Micrococcus luteus, Escherichia coli, and Neurospora crassa.
# Factor S-1 is further purified in 200-mg portions by dissolving it in methanol and chromatographing the solution on a 1"×30-cm column packed with Zorbax ODS (12μ) (E. I. duPont). The column is eluted at 10 ml/min with 45% acetonitrile in 0.01% trifluoroacetic acid (400 ml) and then with a 400-ml gradient of from 45%-100% acetonitrile in 0.01% trifluoroacetic acid. Fractions are checked by UV absorption at 264 nm and by disc bioassay against M. luteus. Fractions containing only factor S-1 are combined, concentrated and lyophilized to dryness. […]
structure (smiles),measurement,setting,value
CC(=O)OC1C(C)C(O)C=COC2(C)Oc3c(C)c(O)c4c(c3C2=O)C(=O)C(C)=C(NC(=O)C=CC=CC(C)C(O)C(C)C(O)C1C)C4=O (stereo not drawn) [Factor S-1],MIC,[1],2 µg/mL
same,MIC,[2],16 µg/mL
same,MIC,[3],32 µg/mL
same,MIC,Escherichia coli EC14,16 µg/mL
same,MIC,Escherichia coli N10,8 µg/mL
same,MIC,[4],32 µg/mL
same,MIC,Proteus inconstans PR33,8 µg/mL
same,MIC,Proteus rettgeri C24,2 µg/mL
same,MIC,[5],16 µg/mL
same,MIC,Serratia marcescens X99,32 µg/mL
same,MIC,Shigella sonnei N9,8 µg/mL
same,MIC,[6],0.015 µg/mL
same,MIC,[7],0.06 µg/mL
same,inhibition of growth of pathogenic bacteria,pathogenic bacteria,"inhibits the growth of a broad spectrum of pathogenic bacteria, especially gram-positive bacteria"
same,"Ratio of Treated to Control, Molar Percent, acetic",rumen flora; dose 0.5 ppm,1.04
same,"Ratio of Treated to Control, Molar Percent, butyric",rumen flora; dose 0.5 ppm,0.57
same,"Ratio of Treated to Control, Molar Percent, propionic",rumen flora; dose 0.5 ppm,1.29
same,"Ratio of Treated to Control, mMoles/Day, Total VFA",rumen flora; dose 0.5 ppm,1.18
same,"Ratio of Treated to Control, mMoles/Day, acetic",rumen flora; dose 0.5 ppm,1.22
same,"Ratio of Treated to Control, mMoles/Day, butyric",rumen flora; dose 0.5 ppm,0.67
same,"Ratio of Treated to Control, mMoles/Day, methane",rumen flora; dose 0.5 ppm,1.03
same,"Ratio of Treated to Control, mMoles/Day, propionic",rumen flora; dose 0.5 ppm,1.52
same,"Ratio of Treated to Control, Molar Percent, acetic",rumen flora; dose 1 ppm,1.05
same,"Ratio of Treated to Control, Molar Percent, butyric",rumen flora; dose 1 ppm,0.48
same,"Ratio of Treated to Control, Molar Percent, propionic",rumen flora; dose 1 ppm,1.49
same,"Ratio of Treated to Control, mMoles/Day, Total VFA",rumen flora; dose 1 ppm,1.22
same,"Ratio of Treated to Control, mMoles/Day, acetic",rumen flora; dose 1 ppm,1.27
same,"Ratio of Treated to Control, mMoles/Day, butyric",rumen flora; dose 1 ppm,0.59
same,"Ratio of Treated to Control, mMoles/Day, methane",rumen flora; dose 1 ppm,0.98
same,"Ratio of Treated to Control, mMoles/Day, propionic",rumen flora; dose 1 ppm,1.75
same,"Ratio of Treated to Control, Molar Percent, acetic",rumen flora; dose 2 ppm,1.08
same,"Ratio of Treated to Control, Molar Percent, butyric",rumen flora; dose 2 ppm,0.43
same,"Ratio of Treated to Control, Molar Percent, propionic",rumen flora; dose 2 ppm,1.55
same,"Ratio of Treated to Control, mMoles/Day, Total VFA",rumen flora; dose 2 ppm,1.06
same,"Ratio of Treated to Control, mMoles/Day, acetic",rumen flora; dose 2 ppm,1.15
same,"Ratio of Treated to Control, mMoles/Day, butyric",rumen flora; dose 2 ppm,0.46
same,"Ratio of Treated to Control, mMoles/Day, methane",rumen flora; dose 2 ppm,1.09
same,"Ratio of Treated to Control, mMoles/Day, propionic",rumen flora; dose 2 ppm,1.63
same,"Ratio of Treated to Control, Molar Percent, acetic",rumen flora; dose 5 ppm,1.07
same,"Ratio of Treated to Control, Molar Percent, butyric",rumen flora; dose 5 ppm,0.62
same,"Ratio of Treated to Control, Molar Percent, propionic",rumen flora; dose 5 ppm,1.30
same,"Ratio of Treated to Control, mMoles/Day, Total VFA",rumen flora; dose 5 ppm,1.07
same,"Ratio of Treated to Control, mMoles/Day, acetic",rumen flora; dose 5 ppm,1.16
same,"Ratio of Treated to Control, mMoles/Day, butyric",rumen flora; dose 5 ppm,0.66
same,"Ratio of Treated to Control, mMoles/Day, methane",rumen flora; dose 5 ppm,0.50
same,"Ratio of Treated to Control, mMoles/Day, propionic",rumen flora; dose 5 ppm,1.39
same,feed-utilization efficiency in ruminants,rumen flora; statement in words,improve feed-utilization efficiency in ruminants
same,effect on consumption of glucose by bacteria (glucose sparing),[8],prevents the consumption of glucose by bacteria normally present in the monogastric digestive system
same,pKa,titration,8
same,solubility,"solubility; solvents such as methanol, acetonitrile and acetone",soluble
same,solubility,solubility; water,only slightly soluble
same,stability versus temperature,"[9]; 4° C., 25° C. and 37° C.","most stable at 4° C., less stable at 25° C., and least stable at 37 °C"
same,stability versus pH,"[9]; pH 2, 5, 7 and 9","more stable in slightly acidic, neutral and basic solutions than in strongly acidic solutions (pH=2)"
same,activity against M. luteus,Micrococcus luteus,active
